Six compounds from patent US4835160A, “Derivatives of pyridoindole, having anti-tumor properties” (Sanofi, priority 1986, dated 1989) can be followed below.

The structures appear in SMILES notation.

The nature of data set [1]: in vivo. Set-up: species or system CDF1 hybrid mice. Conditions: mouse, ip. The text has this: The compounds of the invention benefit from a good tolerance and a weak toxicity.
Thus the administration, to healthy CDF1 hybrid mice, in a single injection by intraperitoneal route, of the compounds under test, has enabled it to be established that the product is perfectly tolerated at a high dosage since the survival rate of the animals of the experiment was 100 out of 100 thirteen days after administration.

In data set [2] the test system is leukemia P 388. As to the kind of experiment: Test of leukemia P 388; IP/IP, D1-5. The data set is classed as in vivo, CDF1 hybrid mice. Conditions: D1-D5; for Number of survivors: day D30; for T/C %: survival time. Here is the method: (2) In vivo: (GERAN et al., Cancer Chemother., 1972, 2, 07-57):
(§1) The antitumour activity was tested in vivo on various tumours inoculated in various ways according to the following general protocol:
(§2) All the male or female mice are inoculated on day D0 with a known quantity of viable tumour cells for ascitic tumours or with a known tumour fragment for solid tumours.
(§3) They are then distributed into various groups. Each group, corresponding to the animals treated by the product under test, is made up of 10 mice. The product under test is dissolved in distilled water and it is administered n times (Dx-Dy), n, y, and x varying according to the protocol chosen, at the rate of 0.1 ml of solution per 10 g by weight of mice treated and at specific doses for each protocol.
(§4) The "negative control" group, corresponding to the animals which are not treated by the product, contains 2√N animals, N being equal to or greater than the total number of mice treated by the product in the same experiment.
(§5) Finally, the tests can also be carried out at the same time as the study of a group called "positive control", of ten animals, which is treated by a molecule, known for its antitumour activity and which can vary according to the protocol chosen, in the same conditions as the groups treated by the product under test.
(§6) The antitumour activity is evaluated, in the case of ascitic tumours, by considering the increase in the survival time of the animals treated in comparison to that of the animals in the "negative control" group, according to the formula: [formula]
The criterion for activity varies according to the protocol.
(§7) Also, a product is considered as toxic at the dose studied when this T/C value is equal to or less than 85%. In addition, a product is also considered as toxic at the dose studied when the weight variation, expressed in grams and calculated by the formula: […]
"Average weight of the group measured on day 5--Average weight of the same group measured on day 1"
is equal to or less than 4 g.
(a) Test of lelukemia P 388; IP/IP, D1-5 (GERAN et al., Cancer Chemother., 1972, 2, 07-57).
The tests are carried out with CDF1 hybrid mice inoculated by intraperitoneal route with 10^6 leukemia cells from the P 388 line. The compound under test is administered for 5 successive days (D1-D5) by intraperitoneal route. The positive control for the test is 5-fluorouracile which is administered in the same conditions. The number of surviving animals is evaluated on day D30.

Data set [3] concerns reticulosarcoma M5-M5076. Description: Test for reticulosarcoma M5-M5076. As to conditions: 50 mg/kg IP, D1,5,9,13,17. The data set is classed as in vivo, BDF1 hybrid mice. Here is the method: as §1, §2, §3, §4, §5, §6, §7
The tests are carried out with BDF1 hybrid mice inoculated by intraperitoneal route with 10^6 cells of the M5-M5076 line. The compound under test is administered 5 times successively in sequence (D1,5,9,13,17) by intraperitoneal route. The positive control for the test is cyclophosphamide administered in the same conditions. The number of surviving animals is evaluated on day D75.

Data set [4] relates to leukemia tumour line L 1210. Description: In vitro cytotoxic activity on leukemia tumour line L 1210. Conditions: Mus musculus, L1210, 48 h, L 1210, 48 hours contact, 37° C.; read-out: I D 50 (concentration which inhibits the proliferation of the cells by 50%). The data set is classed as cell-based. The procedure:
(1) In vitro: ([…] et al., Chem. Biol. Interaction, 1979, 25, 45-58). The cytotoxic activity of the compounds of the invention has been evaluated by in vitro tests. These tests consist of adding increasing concentrations of the compound under test to a cellular culture of the leukemia tumour line L 1210 in an exponential phase of growth. The cellules are incubated at 37° C. in a CO2 incubator and counted every 24 hours. The calculation of the I D 50 (concentration of the product, expressed in 1^-1 micromole, which inhibits the proliferation of the cells by 50%) is made after 48 hours contact.

Data set [5] relates to melanoma B 16. Description: Test for melanoma B 16. In kind it is in vivo, BDF1 hybrid mice. Conditions: D1-D9; for Number of survivors: day D60; for T/C %: survival time. Here is the method: as §1, §2, §3, §4, §5, §6, §7
(d) Test for melanoma B 16 (GERAN et al., Cancer Chemother., 1972, 2, 07-75).
The tests are carried out with BDF1 hybrid mice inoculated by intraperitoneal route with 0.5 ml of a homogenate of melanoma B 16 made up from 1 g of tumour in 10 ml of physiological serum. The compound under test is administered for 9 days (D1-D9) by intraperitoneal route. The positive control for the test is Cis-Platine administered in the same conditions. The number of surviving animals is evaluated on day D60.

In the case of `CCN(CC)CCCNc1ncc(C)c2[nH]c3ccccc3c12` [Derivative No. 1, 1-(3-diethylaminopropylamino) 4-methyl-5H-pyrido-[4,3-b]indole], the survival at 312 h in data set [1] (100 mg/kg) stood at 100%. Moreover, the “Median day of survival” value in data set [2] (10 mg/kg IP) turned out to be 15.7 days; in data set [2] (50 mg/kg IP), 21.0 days; in data set [3], 32.7 days. In addition, the “Variation by weight” value in data set [2] (10 mg/kg IP) was -0.9 g; in data set [2] (50 mg/kg IP), -2.6 g; in data set [3] it was -0.6 g. Besides, the Number of survivors in data set [2] (10 mg/kg IP), in data set [2] (50 mg/kg IP) and in data set [3] (day D75) was 0/10 each time. The T/C % is 130% in data set [2] (10 mg/kg IP), 174% in data set [2] (50 mg/kg IP) and 130% in data set [3] (survival time).

In data set [1] (50 mg/kg), `CCN(CC)CCCNc1ncc(C)c2[nH]c3ccc(OC)cc3c12` [Derivative No. 4, 1-(3-diethylaminopropylamino)-8-methoxy-4-methyl-5H-pyrido[4,3-b]indole] registered a survival at 312 h of 100%. Besides, the IC50 in data set [4] is 0.3 µM. The “Median day of survival” value in data set [2] (5 mg/kg IP) was found to be 14.0 days; in data set [2] (10 mg/kg IP), 17.0 days; in data set [2] (20 mg/kg IP) it was 17.25 days; in data set [2] (40 mg/kg IP) it was 20.3 days; in data set [2] (80 mg/kg IP), 6.6 days; in data set [5] (5 mg/kg IP), 29.0 days. Besides, the “Variation by weight (g)” value in data set [2] (5 mg/kg IP) was “+1.1 g”; in data set [2] (10 mg/kg IP) it was “+0.7 g”. The Number of survivors in data set [2] (5 mg/kg IP), in data set [2] (10 mg/kg IP), in data set [2] (20 mg/kg IP), in data set [2] (40 mg/kg IP), in data set [2] (80 mg/kg IP) and in data set [5] (5 mg/kg IP) was 0/10 in each case. Moreover, the T/C % is 121% in data set [2] (5 mg/kg IP); 147% in data set [2] (10 mg/kg IP); 149% in data set [2] (20 mg/kg IP); 176% in data set [2] (40 mg/kg IP); 57% in data set [2] (80 mg/kg IP); 135% in data set [5] (5 mg/kg IP). Besides, the “Variation by weight” value in data set [2] (20 mg/kg IP) is on record as -0.9 g; in data set [2] (40 mg/kg IP), -3.4 g; in data set [2] (80 mg/kg IP) it was -4.8 g; in data set [5] (5 mg/kg IP), -1.9 g.

Turning to `Cc1cnc(NCCCN(C)C)c2c1[nH]c1ccc(O)cc12` [Derivative No. 9, 1-(3-dimethylaminopropylamino)-8-hydroxy-4-methyl-5H-pyrido[4,3-b]indole], the IC50 in data set [4] is 0.09 µM. Besides, in data set [5] (0.625 mg/kg IP), the “Median day of survival” value amounted to 28 days, the “Variation by weight (g)” value was “+1.3 g”, the Number of survivors is reported as 0/10 and the T/C % came to 118%. Also, in data set [5] (1.25 mg/kg IP), the “Median day of survival” value was determined as 33.0 days, the “Variation by weight (g)” value is “+0.1 g”, the Number of survivors is 1/10 and the T/C % amounted to 139%. Further, in data set [5] (2.5 mg/kg IP), the “Median day of survival” value came to 31.25 days, the “Variation by weight (g)” value is “+0.8 g”, the Number of survivors is 1/10 and the T/C % is 131%.

`COc1ccc2c(c1)c1c(NCCCN(C)C)ncc(C)c1n2C.Cl.Cl` [Derivative No. 13, 4,5-dimethyl-1-(3-dimethylaminopropylamino)-8-methoxy-5H-pyrido[4,3-b]indole dihydrochloride]: the IC50 in data set [4] came to 0.13 µM. In data set [2] (5 mg/kg IP), the “Median day of survival” value was determined as 14.1 days, the “Variation by weight (g)” value is on record as “+1.0 g”, the Number of survivors is given as 0/10 and the T/C % was determined as 134%. In data set [2] (10 mg/kg IP), the “Median day of survival” value worked out at 16.8 days, the “Variation by weight (g)” value is recorded as “+1.2 g”, the Number of survivors is on record as 0/10 and the T/C % worked out at 160%. Further, in data set [2] (20 mg/kg IP), the “Median day of survival” value came to 15.8 days, the “Variation by weight (g)” value is reported as “+0.4 g”, the Number of survivors is listed as 0/10 and the T/C % was 150%. Moreover, in data set [2] (40 mg/kg IP), the “Median day of survival” value was 8.4 days, the “Variation by weight” value was -2.5 g, the Number of survivors was 0/10 and the T/C % came out at 80%.

As to `Cc1cnc(NCCCN(C)C)c2c3ccccc3n(C)c12.Cl.Cl` [Derivative No. 17, 4,5-dimethyl 1-(3-dimethylaminopropylamino)-5H-pyrido[4,3-b]indole dihydrochloride], the IC50 in data set [4] came to 0.35 µM. In data set [2] (24 mg/kg IP), the “Median day of survival” value worked out at 15.4 days, the “Variation by weight” value is on record as 0.0 g, the Number of survivors is 0/10 and the T/C % is 131%.

For the compound `CCN(CC)CCNc1ncc(C)c2c1c1cc(O)ccc1n2C.Cl.Cl` [Derivative No. 19, 1-(2-diethylaminoethylamino)-4,5-dimethyl-8-hydroxy-5H-pyrido[4,3-b]indole dihydrochloride], the IC50 in data set [4] turned out to be 0.15 µM. Also, in data set [2] (5 mg/kg IP), the “Median day of survival” value was 15.3 days, the “Variation by weight (g)” value is reported as “+0.5 g”, the Number of survivors is on record as 0/6 and the T/C % turned out to be 142%. In data set [2] (10 mg/kg IP), the “Median day of survival” value is 17.0 days, the “Variation by weight” value is recorded as -0.2 g, the Number of survivors is on record as 0/6 and the T/C % was determined as 153%. Further, in data set [2] (20 mg/kg IP), the “Median day of survival” value was 20.3 days, the “Variation by weight (g)” value was “+0.3 g”, the Number of survivors is recorded as 0/6 and the T/C % came out at 182%. Also, in data set [2] (40 mg/kg IP), the “Median day of survival” value stood at 15.3 days, the “Variation by weight” value is listed as -2.1 g, the Number of survivors is on record as 0/6 and the T/C % is listed as 137%.
